Assay results as given in patent publication US10959428B2, “Hematophagous arthropod repellent composition” (WOOJUNG BIO INC., priority 2017, dated 2021).

System: adult Aedes aegypti
Assay: cage-in-arm test, complete protection time (CPT)
Assay type: in vivo
Conditions: 4 mg, adult Aedes aegypti
Experimental: For determining the repellency of prepared samples against adults of Aedes aegypti and Aedes albopicus, a cage-in-arm test was carried out as a method for exposure to skin. Namely, on a back of the hand of a rubber glove, a hole with diameter of 5 cm was created, and, onto an exposed back of the testees, various samples prepared by dissolution in 100 μl of ethanol were applied, and then the skin test was carried out. The testees were healthy males between the ages of 21 and 40. The control group was treated with 100 μl of ethanol only. Female adults (5 to 8 day old) of Aedes aegypti or Aedes albopicus (250 to 300 mosquitoes) were added to a cage for growing adult mosquitoes (25×25×25 cm^3), and adapted to the indoor conditions for 12 to 24 hours before starting the test. When the upper arm of the control group is exposed for 1 minute and at least 6 mosquitoes sit on the upper arm or show a bloodsucking behavior, it was determined as sufficient biting pressure, and then the repellency test was carried out. […] The time period between the time point with initial treatment of a material and the time point at which 2 or more mosquitoes continuously sit on the treatment area or show the bloodsucking behavior was defined as complete protection time (CPT). Furthermore, for obtaining the repellency with regard to concentration, exposure was made for a constant time period regardless of the above and the repellency was calculated by using the following formula. Accordingly, the effect was compared among each test samples. All tests were carried out in triplicate. Repellency %=(Number of insects showing bloodsucking behavior in non-treatment group−Number of insects showing bloodsucking behavior in treatment group)/Number of insects showing bloodsucking behavior in non-treatment group)×100 <Tick Repellency>

Row | Compound | CPT [min]
1 | C=CCc1ccc(O)c(OC)c1 [Eugenol, eugenol, reference compound] | 10
2 | COc1cc(C=O)ccc1O [Vanillin] | 30
3 | COc1cc(CCC(C)=O)ccc1O [Vanillyl acetone, vanillyl acetone] | 10
4 | COc1cc(C=O)ccc1OC(=O)OC(C)(C)C [tert-butyl 4-formyl-2-methoxyphenyl carbonate] | 10
5 | vanillin isobutyrate | 45
